Laboratory results from the supplement of paper PMC10307832.

Assays:
Test in all cases: relative viability (nuclei count vs DMSO), 5 days (fraction); higher = more cells survive
[1] = system: NCI-H1993
Outline: (§1)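 Medians of duplicate plates are given as relative viability. That measure is the nuclei count in treated wells divided by the count in vehicle wells. Counts were taken on 4× images of lung cancer cell lines in 1536-well plates, 5 days after pin-tool dosing the day after seeding with one drug alone or a fixed anchor-drug dose plus five library-drug doses (not always all listed) in √10 steps.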

[2] = system: NCI-H2126
Outline: as §1

[3] = system: NCI-H2009
Outline: as §1

[4] = system: PC-14
Outline: as §1

[5] = system: SK-MES-1
Outline: as §1

[6] = system: LU99A
Outline: as §1

[7] = system: HCC-366
Outline: as §1

[8] = system: HOP-62
Outline: as §1

[9] = system: LXF-289
Outline: as §1

[10] = system: LC-2-ad
Outline: as §1

[11] = system: HCC-827
Outline: as §1

[12] = system: NCI-H522
Outline: as §1

[13] = system: HCC-15
Outline: as §1

[14] = system: PC-3 [JPC-3]
Outline: as §1

[15] = system: COR-L23
Outline: as §1

[16] = system: NCI-H2087
Outline: as §1

[17] = system: CAL-12T
Outline: as §1

[18] = system: HARA
Outline: as §1

[19] = system: NCI-H2170
Outline: as §1

[20] = system: LCLC-97TM1
Outline: as §1

[21] = system: HCC-44
Outline: as §1

[22] = system: COR-L 105
Outline: as §1

## COCC1(CO)C(=O)C2CCN1CC2 (stereo not drawn) [PRIMA-1MET] + COc1cccc2cc(-c3nc([C@H]4CC[C@H](C(=O)O)CC4)n4ncnc(N)c34)[nH]c12 [OSI-027] (partner 0.5 µM)
[1]; first compound 0.2 µM
  relative viability: 0.569
[1]; first compound 0.6325 µM
  relative viability: 0.561
[1]; first compound 2 µM
  relative viability: 0.518
[1]; first compound 6.325 µM
  relative viability: 0.532
[1]; first compound 20 µM
  relative viability: 0.49
[2]; first compound 0.2 µM
  relative viability: 0.799
[2]; first compound 0.6325 µM
  relative viability: 0.603
[2]; first compound 2 µM
  relative viability: 0.56
[2]; first compound 6.325 µM
  relative viability: 0.728
[2]; first compound 20 µM
  relative viability: 0.675
[3]; first compound 0.2 µM
  relative viability: 0.699
[3]; first compound 0.6325 µM
  relative viability: 0.578
[3]; first compound 2 µM
  relative viability: 0.643
[3]; first compound 6.325 µM
  relative viability: 0.67
[3]; first compound 20 µM
  relative viability: 0.0063
[4]; first compound 0.2 µM
  relative viability: 1.01
[4]; first compound 0.6325 µM
  relative viability: 0.779
[4]; first compound 2 µM
  relative viability: 0.975
[4]; first compound 6.325 µM
  relative viability: 0.848
[4]; first compound 20 µM
  relative viability: 0.0163
[5]; first compound 0.2 µM
  relative viability: 0.65
[5]; first compound 0.6325 µM
  relative viability: 0.711
[5]; first compound 2 µM
  relative viability: 0.543
[5]; first compound 6.325 µM
  relative viability: 0.633
[5]; first compound 20 µM
  relative viability: 0.436
[6]; first compound 0.2 µM
  relative viability: 0.322
[6]; first compound 0.6325 µM
  relative viability: 0.29
[6]; first compound 2 µM
  relative viability: 0.292
[6]; first compound 6.325 µM
  relative viability: 0.268
[6]; first compound 20 µM
  relative viability: 0.0893
[7]; first compound 0.2 µM
  relative viability: 0.389
[7]; first compound 0.6325 µM
  relative viability: 0.725
[7]; first compound 2 µM
  relative viability: 0.303
[7]; first compound 6.325 µM
  relative viability: 1.01
[7]; first compound 20 µM
  relative viability: 0.927
[8]; first compound 0.2 µM
  relative viability: 0.965
[8]; first compound 0.6325 µM
  relative viability: 0.808
[8]; first compound 2 µM
  relative viability: 0.757
[8]; first compound 6.325 µM
  relative viability: 0.88
[8]; first compound 20 µM
  relative viability: 0.754
[9]; first compound 0.2 µM
  relative viability: 0.889
[9]; first compound 0.6325 µM
  relative viability: 0.803
[9]; first compound 2 µM
  relative viability: 0.527
[9]; first compound 6.325 µM
  relative viability: 0.874
[9]; first compound 20 µM
  relative viability: 0.759
[10]; first compound 0.2 µM
  relative viability: 0.854
[10]; first compound 2 µM
  relative viability: 0.729
[10]; first compound 6.325 µM
  relative viability: 0.898
[10]; first compound 20 µM
  relative viability: 0.819
[11]; first compound 0.2 µM
  relative viability: 0.694
[11]; first compound 0.6325 µM
  relative viability: 0.668
[11]; first compound 2 µM
  relative viability: 0.625
[11]; first compound 6.325 µM
  relative viability: 0.784
[11]; first compound 20 µM
  relative viability: 0.748
[12]; first compound 0.2 µM
  relative viability: 0.647
[12]; first compound 0.6325 µM
  relative viability: 0.671
[12]; first compound 2 µM
  relative viability: 0.596
[12]; first compound 6.325 µM
  relative viability: 0.836
[12]; first compound 20 µM
  relative viability: 0.13
[13]; first compound 0.2 µM
  relative viability: 0.534
[13]; first compound 0.6325 µM
  relative viability: 0.616
[13]; first compound 2 µM
  relative viability: 0.526
[13]; first compound 6.325 µM
  relative viability: 0.559
[13]; first compound 20 µM
  relative viability: 0.439
[14]; first compound 0.2 µM
  relative viability: 0.709
[14]; first compound 0.6325 µM
  relative viability: 0.747
[14]; first compound 2 µM
  relative viability: 0.816
[14]; first compound 6.325 µM
  relative viability: 0.77
[14]; first compound 20 µM
  relative viability: 0.792
[15]; first compound 0.2 µM
  relative viability: 0.892
[15]; first compound 0.6325 µM
  relative viability: 0.679
[15]; first compound 2 µM
  relative viability: 0.728
[15]; first compound 6.325 µM
  relative viability: 0.744
[15]; first compound 20 µM
  relative viability: 0.0162
[16]; first compound 0.2 µM
  relative viability: 0.355
[16]; first compound 0.6325 µM
  relative viability: 0.481
[16]; first compound 2 µM
  relative viability: 0.681
[16]; first compound 6.325 µM
  relative viability: 0.433
[16]; first compound 20 µM
  relative viability: 0.262
[17]; first compound 0.2 µM
  relative viability: 0.7
[17]; first compound 0.6325 µM
  relative viability: 0.608
[17]; first compound 2 µM
  relative viability: 0.807
[17]; first compound 6.325 µM
  relative viability: 0.798
[17]; first compound 20 µM
  relative viability: 0.106
[18]; first compound 0.2 µM
  relative viability: 0.463
[18]; first compound 0.6325 µM
  relative viability: 0.48
[18]; first compound 6.325 µM
  relative viability: 0.59
[18]; first compound 20 µM
  relative viability: 0.417
[19]; first compound 0.2 µM
  relative viability: 0.494
[19]; first compound 0.6325 µM
  relative viability: 0.634
[19]; first compound 2 µM
  relative viability: 0.722
[19]; first compound 6.325 µM
  relative viability: 0.718
[19]; first compound 20 µM
  relative viability: 0.713
[20]; first compound 0.2 µM
  relative viability: 0.306
[20]; first compound 0.6325 µM
  relative viability: 0.554
[20]; first compound 2 µM
  relative viability: 0.582
[20]; first compound 6.325 µM
  relative viability: 0.364
[20]; first compound 20 µM
  relative viability: 0.438
[21]; first compound 0.2 µM
  relative viability: 0.584
[21]; first compound 0.6325 µM
  relative viability: 0.472
[21]; first compound 2 µM
  relative viability: 0.383
[21]; first compound 6.325 µM
  relative viability: 0.397
[21]; first compound 20 µM
  relative viability: 0.485
[22]; first compound 0.2 µM
  relative viability: 0.899
[22]; first compound 0.6325 µM
  relative viability: 0.66
[22]; first compound 2 µM
  relative viability: 0.488
[22]; first compound 6.325 µM
  relative viability: 0.662
[22]; first compound 20 µM
  relative viability: 0.0915
